From patent publication US20250195490A1, “ALPHA-METHYLENE AND AMINOMETHYL LACTONES AND LACTAMS FOR TREATMENT OF CLOSTRIDIOIDES DIFFICILE INFECTION (CDI)” (Purdue Research Foundation, priority 2022, published 2025)

Tests used:
E. coli (TolC mutant) = assay: MIC by broth microdilution against E. coli (TolC mutant); assay type: cell-based, Escherichia coli; details: aerobic, 37° C., at least 18 hours
Protocol: (§1) Method: The minimum inhibitory concentration (MIC) of the compounds and control drugs, linezolid (antibiotic), vancomycin (antibiotic), 5-fluorocytosine (5-FC, antifungal drug), and fluconazole (antifungal drug) was determined using the broth microdilution method according to the guidelines outlined by the Clinical and Laboratory Standards Institute (CLSI) against clinically relevant bacterial (methicillin-resistant Staphylococcus aureus (MRSA), vancomycin-resistant Enterococcus faecalis (VRE), vancomycin-resistant Enterococcus faecium (VRE), Clostridioides difficile and Escherichia coli) and fungal (Candida albicans) strains. A solution equivalent to 0.5 McFarland standard was prepared from each strain and diluted in cation-adjusted Mueller-Hinton broth (for S. aureus and E. coli), tryptone soy broth (for E. faecalis), or brain heart infusion broth (for E. faecium) to achieve a bacterial inoculum of about 5×10^5 CFU/mL. C. difficile strains were cultured in brain heart infusion broth supplemented with hemin and vitamin K. C. albicans was diluted in RPMI medium supplemented with 3-(N-morpholino) propanesulfonic acid to achieve a fungal concentration of about 1.5×10^3 CFU/mL. Compounds and control drugs were added in the first row of the 96-well plates and diluted with media containing bacteria (to achieve a concentration gradient ranging from 128 to 1 μg/mL). For MRSA, VRE, and E. coli strains, plates were then incubated aerobically at 37° C. for at least 18 hours. C. albicans was incubated aerobically at 37° C. for 24 hours. Plates containing C. difficile were incubated anaerobically at […] for 48 hours.

E. faecium = assay: Broth microdilution against vancomycin-resistant E. faecium; assay type: cell-based, Enterococcus faecium; details: gradient 128 to 1 μg/mL
Protocol: as §1

[1] = In vivo safety profile and toxicity (maximum tolerated dose) in mice
Protocol: Aminomethyllactone 27 was evaluated for any possible toxicity at oral doses higher than the anticipated dose that will be used for antimicrobial efficacy. The maximum tolerated dose (MTD) in mice was calculated and was expected to be several folds higher than therapeutic dose. The MTD is a dose that produces neither mortality nor more than a 10% decrement in body weight nor clinical signs of toxicity or a significant change in renal and/or hepatic function in the survivors. Having shown that 10 mg/kg in mice is not toxic in our initial mouse model studies, 10, 25, 50, 100, 200, 400 mg/kg doses of 27 were chosen, each dose was given one time to one mouse, and the mice were observed daily for 14 days for body weight gain, clinical signs of abnormality, and renal and hepatic function.
At the end of the study, all animals appeared to be healthy and have good body weight. They were then euthanized, and the major organ (heart, liver, lung, kidney, spleen, and intestines) tissues were harvested for histological examination of toxicity. The evaluator was blinded to the treatment status of each mouse at the time of examination. […] Overall, 27 appears to be non-toxic to mice.

C. difficile ATCC 43255 = assay: CDI mouse recurrence model; assay type: in vivo, C57BL/6 mice; details: for signs of disease during therapy / survival by day 11: 10 mg/kg daily for 5 days
Excerpt: For mouse recurrence, two models were used for testing the efficacy of aminomethyllactone 27 for preventing recurrence after treatment with vancomycin. The two models used were A—Chen et al model and B— a more aggressive protocol that was developed using modified Chen et al. protocol antibiotic cocktail (applying 3× times the doses of the antibiotics). In brief, groups of 12-weeks-old female C57BL/6 mice were sensitized to CDI by giving either the antibiotic cocktail described above or 3× the dose of antibiotics cocktail in the drinking water for 5 days. Then mice were treated with clindamycin (10 mg/kg) two days after withdrawal of the antibiotic cocktail. One day after clindamycin treatment, mice were infected orally with 1.9×10^6 CFU spore suspension of C. difficile ATCC 43255 [32]. Two hours after infection, animals were divided into groups (n=10), and groups received either Compound 27 (10 mg/kg) or vancomycin (10 mg/kg) by gavage daily for 5 days. Treatment was stopped at day 5, and mice were monitored for an additional 23 days. […] However, from day 9 onward (4 days after vancomycin was discontinued), vancomycin-treated mice developed CDI. By day 11, only 60% of the mice treated with vancomycin had survived in the original protocol (lx antibiotic), and there was 0% survival in the aggressive antibiotic protocol (3× antibiotic). […] Symptomatic recurrence of CDI occurs in approximately 20% of patients and is challenging to treat. In addition to subsequent prolongation of C. difficile shedding and transmission, 1 out of every 5 patients with CDI, who experienced a recurrence of the infection, died within 30 days of diagnosis. Compound 27, which reduces recurrences, can potentially prolong the clinical utility of current antibiotics (vancomycin and fidaxomicin).

## COc1cc(C2OC(=O)C(CN3CCCCC3)C2c2ccccc2Br)ccc1OCc1ccccc1 (racemic) [Compound 27]
E. coli (TolC mutant)
  MIC E. coli (TolC mutant): >128 µg/mL
E. faecium
  inhibition of the tested strains of E. faecium: did not inhibit
[1]; 10 mg/kg in mice
  toxicity in initial mouse model studies: not toxic
[1]; heart, liver, lung, kidney, spleen, intestines, end of 14-day study
  histological examination of major organ tissues: within normal histologic limits
[1]; single oral doses 10, 25, 50, 100, 200, 400 mg/kg, observed 14 days
  toxicity to mice: non-toxic
C. difficile ATCC 43255
  signs of disease during therapy: no signs of disease
C. difficile ATCC 43255; 28 days, 10 mg/kg oral daily for 5 days
  survival of mice: 100%
C. difficile ATCC 43255; for 28 days, 10 mg/kg oral daily for 5 days
  recurrence of CDI: no recurrence

## C=C1C(=O)O[C@H](c2ccccc2O)[C@@H]1c1cccc(C#N)c1 (racemic) [Compound 50]
E. coli (TolC mutant)
  MIC E. coli (TolC mutant): >128 µg/mL
E. faecium
  inhibition of the tested strains of E. faecium: did not inhibit

## CN[C@H](CC(C)C)C(=O)N[C@H]1C(=O)N[C@@H](CC(N)=O)C(=O)N[C@H]2C(=O)N[C@H]3C(=O)N[C@H](C(=O)N[C@H](C(=O)O)c4cc(O)cc(O)c4-c4cc3ccc4O)[C@H](O)c3ccc(c(Cl)c3)Oc3cc2cc(c3O[C@@H]2O[C@H](CO)[C@@H](O)[C@H](O)[C@H]2O[C@H]2C[C@](C)(N)[C@H](O)[C@H](C)O2)Oc2ccc(cc2Cl)[C@H]1O [Vancomycin, reference compound]
C. difficile ATCC 43255
  signs of disease during therapy: no signs of disease
C. difficile ATCC 43255; aggressive antibiotic protocol (3× antibiotic)
  survival by day 11: 0%
C. difficile ATCC 43255; original protocol (1x antibiotic)
  survival by day 11: 60%
C. difficile ATCC 43255; treatment stopped at day 5
  day from which treated mice developed CDI: ≥ 9 days
